Assay results as given in ChEMBL document CHEMBL1157955, “Anti-inflammatory neolignans from Piper kadsura” (J Nat Prod, 2006).

Assay: Antiinflammatory activity in human PMN assessed as inhibition of Phorbol-12-myristate-13-acetate-induced ROS production
Format: functional

SMILES	IC50
C=CCC1=CC(OC)(/C(C)=C/c2ccc3c(c2)OCO3)C(OC)=CC1=O (stereo not given) [FUTOQUINOL]	13.1 µM
O=C(/C=C/c1ccc(O)cc1)NCCc1ccc(O)cc1 [N-P-COUMAROYL TYRAMINE]	8.4 µM
C=CCC1([C@H](C)[C@@H](OC(C)=O)c2ccc(OC)c(OC)c2)C=C(OC)C(OC)=CC1=O (stereo not given in full) [PIPERKADSIN B]	12.2 µM

Stronger by IC50, values ahead:

IC50	SMILES
4.3 µM	C=CCC1=C[C@@](OC)(/C(C)=C/c2ccc(O)c(OC)c2)C(OC)=CC1=O [PIPERKADSIN A]
7 µM	COc1c(O)cc2c3c(cc4ccccc4c13)N(OC)C2=O [PIPERLACTAM S]
